Experimental data published in patent US8415299B2, “Methods for improved avian performance” (priority 2004, dated 2013).
Like-named read-outs stand apart in the source and are kept apart here.

Legend:
[1] = system: 66-week-old caged laying hens; conditions: cited from earlier work
[2] = system: 102-week old Hy-Line W-36 White Leghorn hens
Description: Experiment 2. […] The photoperiod was 17 hours of light per day (0330 hours to 2030 hours).
The objective was to use T4 to humanely induce molting in hens that are continuously provided with ad libitum access to palatable feed meeting or exceeding all National Research Council (1994) standards. Developing a fully efficacious yet affordable molting protocol was predicated on determining the minimum effective level for T4 supplementation. Factors that potentially may affect the required level of T4 supplementation include: (1) uncertainty regarding the efficiency of T4 absorption by the gastrointestinal tract, (2) the possibility that continuous dietary ingestion of T4 could trigger substantially different biological responses when compared single daily injections, and (3) the likelihood that daily T4 intake would diminish in parallel with molt-related reductions in feed intake associated with cessation in egg production. A spontaneous and voluntary loss of appetite (anorexia) commonly accompanies seasonal molting and broodiness in a variety of avian species (Berry, 2003; Webster, 2003). Accordingly, the responses of hens to diets containing 10, 20, and 40 mg T4/kg, to bracket the anticipated range of T4 needed to cause an effective molt, were determined.

turkey breeder hens = assay: Experiment 7: molting of turkey breeder hens with dietary L-thyroxine, porcine thyroid powder or thyroactive iodinated casein, 10 days; assay type: in vivo; conditions: 10, 20, or 40 mg T4/kg diet
Excerpt: Experiment 7. Molting of Turkey Breeder Hens with Dietary L-Thyroxine, PorcineThyroid Powder, or Thyroactive Iodinated Casein. Turkey breeder hens were molted with various dietary thyroxine treatments at Diamond K Research, […]. (Jun. 20-Jul. 1, 2005).

laying hens = conditions: cited from earlier work
[3] = system: 60-week old Hy-Line W-36 White Leghorn hens; conditions: for Feed Intake: day 22 to day 28
Description: Experiment 1. […] The photoperiod was 17 hours of light per day (0330 hours to 2030 hours).

[4] = 40 mg T4/kg test diet for 10 days

N[C@@H](Cc1cc(I)c(Oc2cc(I)c(O)c(I)c2)c(I)c1)C(=O)O [L-thyroxine, 3,5,3′,5′-tetraiodothyronine]
Days to target body weight (30% body weight loss) ([1]; 10 mg/kg feed in grape pomace diet after 1-day feed withdrawal): 16 days | Days to target body weight (30% body weight loss) ([1]; corn diet with or without 10 mg/kg, 1-day fast or no fast): 28 days | Time to onset of molt after T4 feeding was initiated ([2]; 10 mg T4 kg Group, 10 days on test diets, half of the hens): 11 days | Feed consumption change from days 2-4 (% FCC) ([2]; 10 mg/kg feed 6 d, Day 11-14): −19.7% | Feed consumption (FC) ([2]; 10 mg/kg feed 6 d, Days 2-4 (pre-treatment)): 101.3 g/hen/d | Feed consumption (FC) ([2]; 10 mg/kg feed 6 d, Days 5-7): 60.0 g/hen/d | Feed consumption change from days 2-4 (% FCC) ([2]; 10 mg/kg feed 6 d, Days 5-7): −40.8% | Feed consumption (FC) ([2]; 10 mg/kg feed 6 d, Days 8-10): 35.3 g/hen/d | Feed consumption change from days 2-4 (% FCC) ([2]; 10 mg/kg feed 6 d, Days 8-10): −65.2% | Feed consumption (FC) ([2]; 10 mg/kg feed 10 d, Day 11-14): 47.3 g/hen/d | Feed consumption change from days 2-4 (% FCC) ([2]; 10 mg/kg feed 10 d, Day 11-14): −43.7% | Feed consumption (FC) ([2]; 10 mg/kg feed 10 d, Days 2-4 (pre-treatment)): 84.0 g/hen/d | Feed consumption (FC) ([2]; 10 mg/kg feed 10 d, Days 5-7): 56.0 g/hen/d | Feed consumption change from days 2-4 (% FCC) ([2]; 10 mg/kg feed 10 d, Days 5-7): −33.3% | Feed consumption (FC) ([2]; 10 mg/kg feed 10 d, Days 8-10): 33.7 g/hen/d | Feed consumption change from days 2-4 (% FCC) ([2]; 10 mg/kg feed 10 d, Days 8-10): −59.9% | Feed consumption (FC) ([2]; 20 mg/kg feed 6 d, Day 11-14): 73.7 g/hen/d | Feed consumption change from days 2-4 (% FCC) ([2]; 20 mg/kg feed 6 d, Day 11-14): −28.4% | Feed consumption (FC) ([2]; 20 mg/kg feed 6 d, Days 2-4 (pre-treatment)): 103.0 g/hen/d | Feed consumption (FC) ([2]; 20 mg/kg feed 6 d, Days 5-7): 42.0 g/hen/d | Feed consumption change from days 2-4 (% FCC) ([2]; 20 mg/kg feed 6 d, Days 5-7): −59.2% | Feed consumption (FC) ([2]; 20 mg/kg feed 6 d, Days 8-10): 33.7 g/hen/d | Feed consumption change from days 2-4 (% FCC) ([2]; 20 mg/kg feed 6 d, Days 8-10): −67.3% | Feed consumption (FC) ([2]; 20 mg/kg feed 10 d, Day 11-14): 32.7 g/hen/d | Feed consumption change from days 2-4 (% FCC) ([2]; 20 mg/kg feed 10 d, Day 11-14): −72.9% | Feed consumption (FC) ([2]; 20 mg/kg feed 10 d, Days 2-4 (pre-treatment)): 120.7 g/hen/d | Feed consumption (FC) ([2]; 20 mg/kg feed 10 d, Days 5-7): 54.7 g/hen/d | Feed consumption change from days 2-4 (% FCC) ([2]; 20 mg/kg feed 10 d, Days 5-7): −54.7% | Feed consumption (FC) ([2]; 20 mg/kg feed 10 d, Days 8-10): 30.0 g/hen/d | Feed consumption change from days 2-4 (% FCC) ([2]; 20 mg/kg feed 10 d, Days 8-10): −75.1% | Hen-day egg production ([2]; 20 mg/kg feed 10 d, day 4 (pre-treatment)): 75% | Hen-day egg production ([2]; 20 mg/kg feed 10 d, day 30): 25% | Loss of initial body weight [2, 4]: approximately 21% | Reduction of feed intake [2, 4]: approximately 85% | Feed consumption (FC) ([2]; 40 mg/kg feed 6 d, Day 11-14): 46.7 g/hen/d | Feed consumption change from days 2-4 (% FCC) ([2]; 40 mg/kg feed 6 d, Day 11-14): −52.5% | Feed consumption (FC) ([2]; 40 mg/kg feed 6 d, Days 2-4 (pre-treatment)): 98.3 g/hen/d | Feed consumption (FC) ([2]; 40 mg/kg feed 6 d, Days 5-7): 36.7 g/hen/d | Feed consumption change from days 2-4 (% FCC) ([2]; 40 mg/kg feed 6 d, Days 5-7): −62.7% | Feed consumption (FC) ([2]; 40 mg/kg feed 6 d, Days 8-10): 13.7 g/hen/d | Feed consumption change from days 2-4 (% FCC) ([2]; 40 mg/kg feed 6 d, Days 8-10): −86.1% | Hen-day egg production ([2]; 40 mg/kg feed 6 d, day 20): 25% | Hen-day egg production ([2]; 40 mg/kg feed 6 d, day 22): 25% | Hen-day egg production ([2]; 40 mg/kg feed 6 d, day 24): 50% | Feed consumption (FC) ([2]; 40 mg/kg feed 10 d, Day 11-14): 19.3 g/hen/d | Feed consumption change from days 2-4 (% FCC) ([2]; 40 mg/kg feed 10 d, Day 11-14): −83.4% | Feed consumption (FC) ([2]; 40 mg/kg feed 10 d, Days 2-4 (pre-treatment)): 116.3 g/hen/d | Feed consumption (FC) ([2]; 40 mg/kg feed 10 d, Days 5-7): 37.3 g/hen/d | Feed consumption change from days 2-4 (% FCC) ([2]; 40 mg/kg feed 10 d, Days 5-7): −67.9% | Feed consumption (FC) ([2]; 40 mg/kg feed 10 d, Days 8-10): 22.0 g/hen/d | Feed consumption change from days 2-4 (% FCC) ([2]; 40 mg/kg feed 10 d, Days 8-10): −81.1% | Hen-day egg production ([2]; 40 mg/kg feed 10 d, day 12): 0% | Hen-day egg production ([2]; 40 mg/kg feed 10 d, day 14): 0% | Hen-day egg production ([2]; 40 mg/kg feed 10 d, day 16): 0% | Hen-day egg production ([2]; 40 mg/kg feed 10 d, day 18): 0% | Hen-day egg production ([2]; 40 mg/kg feed 10 d, day 20): 0% | Mortality ([2]; 10, 20, 40 mg T4/kg feed, 6 or 10 days): No mortality occurred in any of the Groups | Time within which egg production was consistently reduced ([2]; 20 and 40 mg T4/kg feed): ≤ 4 days | Effectiveness at regressing reproductive tracts (turkey breeder hens): not as effective as porcine thyroid powder | Effect on egg production and molting (laying hens; 0.2 mg per hen for 21 consecutive days (Szelenyi and Peczely 1988)): diminished egg production but did not result in molting | Mortality (laying hens; injected, e.g. 243 micrograms/100 g body weight, White Leghorn hens 7 months of age (Miller et al. 1962)): 47% | Effect on egg production ([3]; 250 μg T4 per kg body weight i.m. for 12 consecutive days): did not reduce egg production significantly | Day after start of T4 injection on which molting began in all cages ([3]; 500 μg T4 Group): 11 days | Time after start of injecting at which egg production was significantly reduced ([3]; 500 μg T4 Group): 4 days | Day after start of T4 injection on which molting began in all cages ([3]; 1,000 μg T4 Group): 9 days | Time after start of injecting at which egg production was significantly reduced ([3]; 1,000 μg T4 Group): 4 days | Mortality ([3]; 1,000 μg T4 Group, 2 of 8 hens, died 9th and 10th day after start of injection): 25% | Day after start of injection on which molting commenced in all cages ([3]; 2,000 μg T4 Group): 9 days | Time to rapid and complete cessation of egg production ([3]; 2,000 μg T4 per kg body weight i.m. for 3 consecutive days): ≤ 6 days | Day after start of injection on which molting commenced in all cages ([3]; 4,000 μg T4 Group): 9 days | Mortality ([3]; 4000 μg T4 Group, 1 of 4 hens, died 8th day after start of injection): 25% | Time to rapid and complete cessation of egg production ([3]; 4,000 μg T4 per kg body weight i.m. for 3 consecutive days): ≤ 4 days | End of Injections Body Weight ([3]; 250 mcg/kg BW i.m. 12 d): 1300 g | Feed Intake ([3]; 250 mcg/kg BW i.m. 12 d): 58.7 g/hen/day | Feed Intake ([3]; 500 mcg/kg BW i.m. 8 d): 52.3 g/hen/day | Feed Intake ([3]; 1,000 mcg/kg BW i.m. 8 d): 31.4 g/hen/day | Feed Intake ([3]; 2,000 mcg/kg BW i.m. 3 d): 20.2 g/hen/day | Feed Intake ([3]; 4,000 mcg/kg BW i.m. 3 d): 11.7 g/hen/day
